How the values were obtained:
[1] = system: apple trees; test: Field trial in apple trees under heat, light and water stress (sunburn, fruit size, yield); format: in vivo; details: apples
Description: Field trials were conducted in commercial fields and orchards in Chile during the 2011-12 and 2012-13 growing seasons. The results were evaluated by measuring specific fruit parameters affected by abiotic stress including fruit diameter, fruit number, and amount of damage from heat or sunburn. The plants evaluated were apples and tomatoes. The plants in the trials received a conventional application of pesticides, under normal application conditions. The heat and light stress were considered important from the beginning of fruit development. High temperatures ranged between 30-35° C. ambient temperature measured by conventional methods in the shade from December to harvest.
Foliage and fruit were evaluated before and after treatments at regular intervals for signs of phytotoxicity. […] Furthermore, no signs of uncontrolled disease incidence was detected.
SUNCROPS, SUNCROPS PLUS, SCREEN DUO, and ECLIPSE are commercial treatments which are used in the management of abiotic stress. Kaolins and calcium carbonates reduce stress by reflecting the ultraviolet, visible and infrared rays, reducing the impact of excessive heat and light in photosynthesis and other essential plant cellular processes. The dicarboxylic acids, such as the azalaic acid in SUNCROPS PLUS, physiologically act by interacting on lipo-oxygenation processes and production of reactive oxygen species. (Greenberg et al. “The lipid whisker model of the structure of oxidized cell membranes.” J. Biol. Chem. 283, 2385-96, 2008)
The apple trees received six applications of each formulation at the dosages indicated in the “Dosage” column of Table 1. Tomato plants received biweekly treatments from fruit formation to fruit harvest (a total of 6 applications).
The different stages of fruit development correspond to (1) cell division (2) pit hardening (stone fruits only) (3) cell expansion and (4) fruit ripening. The start of the tests was done during the cell division phase. This phase corresponds to the period with increased susceptibility to damage from high temperatures, and can be correlated with increase in fruits having reduced size and decrease in the number of fruits per plant as a consequence of the abiotic stress due to high temperatures.
Early season heat, light and/or water stress can prevent cell division that occurs during phase (1) of the development of apple fruits.
Testing with apples was conducted in Rancagua, Sixth Region; Chile. The tree fruit load was standardized at a value of about 220 fruits per tree; ±3%, thus eliminating the variability generated by different loads of fruit on the trees. To assess damage from sunburn related to heat and water stress, 100% of the apples were harvested from the tree in each test unit and were classified according to the following scheme shown in Table 2.
Table 2. Classification scheme based on visual evaluation of the fruit • 0 No visible presence of sunburn • 1 Presence of slight yellowing of the skin (<7% of the surface of the fruit); exportable commercial fruit. • 2 Presence of strong yellowing of the skin (>7% of the surface of the fruit); exportable commercial fruit. • 3 Presence of moderate sunburn skin, no commercial fruit, suitable only for juice or related industry. • 4 Presence of significant sunburn skin, no harvestable fruit unmarketable.
The variables measured were: fruit diameter (mm), percentage of sunburn (number of fruits belonging to grades 1 or 2), size of the fruit (measured as weight in grams). The total fruit yield of the tree and the commercial yield (amount of commercial grade fruits, grades 1 or 2) was also measured.

[2] = system: tomato plants; test: Field trial in tomato plants under heat, light and water stress (sunburn, yield, soluble solids); format: in vivo; details: 6 applications
Description: The study was conducted on tomatoes in a commercial growing field in Botalcura, Talca, Chile. […]
For each two meters plot, plants were harvested during six test runs. The fruit were first evaluated visually: fruits with red color as adequate for industrial processing, fruits with green color as inadequate and inappropriate for industrial processing and fruits damaged by the sun as disposable. […]

O=CCCCCCCCC(=O)O [ONA, 9-Oxononanoic acid]
Fruit diameter ([1]; Rancagua, Chile, six applications at Table 1 dosage, about 220 fruits per tree): 40.63 mm | Effectiveness in protection of fruit compared with commercial treatments ([1]; cell division stage): more effective than commercial treatments | Yield commercial ([1]; commercial grade fruits (grades 1 or 2), six applications): 49.7 kg/tree | Size ([1]; fruit weight, six applications): 146 g/apple | Yield total ([1]; six applications): 53.9 kg/tree | Percent fruit of grades 1 or 2 ([1]; visual sunburn grading scheme of Table 2, six applications): 88.25% | Soluble solids [2]: 6.4 °Brix

Source: patent publication US20160037772A1, “INCREASING ABIOTIC STRESS TOLERANCE IN PLANTS” (priority 2014, published 2016)
